The results in this text go back to patent US8530446B2, “Oral composition containing difructose anhydride” (Fancl Corporation, priority 2004, dated 2013).

This test has as its system equol production in the intestinal tract. Put plainly: Ability of DFA to increase equol production in the intestinal tract of rats (plasma equol by HPLC-UV). It counts as in vivo, Wistar-ST rats. The following applies: 20 days. From the text:
The ability of DFA to increase equol production in the intestinal tract was examined.
Twenty-seven male Wistar-ST rats (six weeks old) were raised with a solid feed for three days, after which they were divided into three groups by weight so that each group consisted of nine rats. Each group was given a base feed containing 0.25% of a food product containing 40% isoflavone (basal diet group), a feed consisting of the base feed whose sucrose was substituted by 3% with DFAIII (DFAIII group), or a feed consisting of the base feed whose sucrose was substituted by 3% with fructo-oligosaccharide (FOS group), and raised for twenty days. On day 20, blood was taken from each rat through the caudal vein and the equol level in blood plasma was measured using the HPLC-UV method.
In the table, a and b indicate that values denoted by different symbols have a significant difference between them.

Take `OC[C@H]1O[C@@]2(CO[C@]3(CO)O[C@H](CO)[C@@H](O)[C@@H]3O2)[C@@H](O)[C@@H]1O` [DFA, difructose anhydride]: where the note is “rats, 3% in isoflavone-containing feed”, the “Effect of ingestion on equol level in blood plasma (in words)” value is given as “caused the equol level in blood plasma to rise”.

Where the note is “male Wistar-ST rats, n=9/group, base feed with 0.25% of food product containing 40% isoflavone, sucrose substituted by 3% with test substance, caudal vein blood on day 20, HPLC-UV”, `OC[C@H]1O[C@@]2(CO[C@]3(CO)O[C@H](CO)[C@@H](O)[C@@H]3O2)[C@@H](O)[C@@H]1O` [DFAIII, difructose anhydride] yielded an Equol (equol level in blood plasma) of 17.7 ± 1.81 µmol.
